Source: US20210298306A1, “PESTICIDALLY ACTIVE AZOLE-AMIDE COMPOUNDS” (SYNGENTA PARTICIPATIONS AG, priority 2018, published 2021)

How the values were obtained:
Spodoptera littoralis [1] = test: Example B7: Spodoptera littoralis (Egyptian cotton leaf worm), cotton leaf discs sprayed, L1 larvae; assay type: in vivo; settings: foliar, 72 h, application rate 200 ppm, 3 days after infestation, read-out: control in at least one of the categories (mortality, anti-feedant effect, or growth inhibition)
Description: Example B7: Spodoptera littoralis (Egyptian Cotton Leaf Worm)
Cotton leaf discs were placed onto agar in 24-well microtiter plates and sprayed with aqueous test solutions prepared from 10,000 ppm DMSO stock solutions. After drying the leaf discs were infested with five L1 larvae. The samples were assessed for mortality, anti-feeding effect, and growth inhibition in comparison to untreated samples 3 days after infestation. Control of Spodoptera littoralis by a test sample is given when at least one of the categories mortality, anti-feedant effect, and growth inhibition is higher than the untreated sample.

Thrips tabaci = test: Example B9: Thrips tabaci (onion thrips), feeding/contact activity, sunflower leaf discs; assay type: in vivo; settings: foliar, 144 h; application rate 200 ppm; 6 days after infestation; Thrips tabaci mixed ages
Description: Example B9: Thrips tabaci (Onion Thrips) Feeding/Contact Activity
Sunflower leaf discs were placed on agar in 24-well microtiter plates and sprayed with aqueous test solutions prepared from 10,000 ppm DMSO stock solutions. After drying the leaf discs were infested with a thrips population of mixed ages. The samples were assessed for mortality 6 days after infestation.

Spodoptera littoralis [2] = test: Example B8: Spodoptera littoralis (Egyptian cotton leaf worm), uptake by lettuce roots from agar, eggs; assay type: in vivo; settings: 144 h, test rate 12.5 ppm, 6 days after infestation, lettuce root uptake, read-out: effect in at least one of the three categories (mortality, anti-feeding, or growth inhibition)
Excerpt: Example B8: Spodoptera littoralis (Egyptian Cotton Leaf Worm)
Test compounds were applied by pipette from 10,000 ppm DMSO stock solutions into 24-well plates and mixed with agar. Lettuce seeds were placed onto the agar and the multi well plate was closed by another plate which contained also agar. After 7 days the compound was absorbed by the roots and the lettuce grew into the lid plate. The lettuce leaves were then cut off into the lid plate. Spodoptera eggs were pipetted through a plastic stencil onto a humid gel blotting paper and the lid plate was closed with it. The samples were assessed for mortality, anti-feedant effect and growth inhibition in comparison to untreated samples 6 days after infestation.
The following compounds gave an effect of at least 80% in at least one of the three categories (mortality, anti-feeding, or growth inhibition) at a test rate of 12.5 ppm: […]

Euschistus heros = test: Example B2: Euschistus heros (neotropical brown stink bug), soybean leaves sprayed, N2 nymphs; assay type: in vivo; settings: 120 h, application rate 200 ppm, 5 days after infestation, read-out: effect in at least one of the two categories (mortality or growth inhibition)
Description: Example B2: Euschistus heros (Neotropical Brown Stink Bug)
Soybean leaves on agar in 24-well microtiter plates were sprayed with aqueous test solutions prepared from 10,000 ppm DMSO stock solutions. After drying the leaves were infested with N2 nymphs. The samples were assessed for mortality and growth inhibition in comparison to untreated samples 5 days after infestation.
(§1) The following compounds gave an effect of at least 80% in at least one of the two categories (mortality or growth inhibition) at an application rate of 200 ppm: […]

Diabrotica balteata = test: Example B1: Diabrotica balteata (corn root worm), maize sprouts sprayed, L2 larvae; assay type: in vivo; settings: 96 h, application rate 200 ppm, 4 days after infestation, read-out: effect in at least one of the two categories (mortality or growth inhibition)
Description: Example B1: Diabrotica Balteata (Corn Root Worm)
Maize sprouts placed onto an agar layer in 24-well microtiter plates were treated with aqueous test solutions prepared from 10,000 ppm DMSO stock solutions by spraying. After drying, the plates were infested with L2 larvae (6 to 10 per well). The samples were assessed for mortality and growth inhibition in comparison to untreated samples 4 days after infestation.
as §1

Myzus persicae [3] = test: Example B5: Myzus persicae (green peach aphid), feeding/contact activity, sunflower leaf discs; assay type: in vivo; settings: foliar, 144 h, application rate 200 ppm, 6 days after infestation, Myzus persicae mixed ages
Description: Example B5: Myzus persicae (Green Peach Aphid):Feeding/Contact Activity
Sunflower leaf discs were placed onto agar in a 24-well microtiter plate and sprayed with aqueous test solutions prepared from 10,000 ppm DMSO stock solutions. After drying, the leaf discs were infested with an aphid population of mixed ages. The samples were assessed for mortality 6 days after infestation.

Chilo suppressalis = test: Example B3: Chilo suppressalis (striped rice stemborer), artificial diet, L2 larvae; assay type: in vivo; settings: 144 h, application rate 200 ppm, 6 days after infestation, read-out: control in at least one of the categories (mortality, anti-feedant effect, or growth inhibition)
Description: Example B3: Chilo suppressalis (Striped Rice Stemborer)
24-well microtiter plates with artificial diet were treated with aqueous test solutions prepared from 10,000 ppm DMSO stock solutions by pipetting. After drying, the plates were infested with L2 larvae (6-8 per well). The samples were assessed for mortality, anti-feeding effect, and growth inhibition in comparison to untreated samples 6 days after infestation. Control of Chilo suppressalis by a test sample is given when at least one of the categories mortality, anti-feedant effect, and growth inhibition is higher than the untreated sample.

Plutella xylostella [4] = test: Example B4: Plutella xylostella (diamond back moth), artificial diet, 24-well, eggs; assay type: in vivo; settings: 192 h, application rate 200 ppm, 8 days after infestation, read-out: effect in at least one of the two categories (mortality or growth inhibition)
Description: Example B4: Plutella xylostella (Diamond Back Moth)
24-well microtiter plates with artificial diet were treated with aqueous test solutions prepared from 10,000 ppm DMSO stock solutions by pipetting. After drying, Plutella eggs were pipetted through a plastic stencil onto a gel blotting paper and the plate was closed with it. The samples were assessed for mortality and growth inhibition in comparison to untreated samples 8 days after infestation.
as §1

Myzus persicae [5] = test: Example B6: Myzus persicae (green peach aphid), intrinsic activity, sucrose solution, 24-well; assay type: in vivo; settings: 120 h, test rate 12 ppm, 5 days after infestation
Excerpt: Example B6: Myzus persicae (Green Peach Aphid). Intrinsic Activity
Test compounds prepared from 10,000 ppm DMSO stock solutions were applied by pipette into 24-well microtiter plates and mixed with sucrose solution. The plates were closed with a stretched Parafilm. A plastic stencil with 24 holes was placed onto the plate and infested pea seedlings were placed directly on the Parafilm. The infested plate was closed with a gel blotting paper and another plastic stencil and then turned upside down. The samples were assessed for mortality 5 days after infestation.

Myzus persicae [6] = test: Example B10: Myzus persicae (green peach aphid), sucrose solution, 96-well; assay type: in vivo; settings: 120 h, application rate 50 ppm, 5 days after infestation
Excerpt: Example B10: Myzus persicae (Green Peach Aphid)
Test compounds prepared from 10,000 ppm DMSO stock solutions were applied by a liquid handling robot into 96-well microtiter plates and mixed with a sucrose solution. Parafilm was stretched over the 96-well microtiter plate and a plastic stencil with 96 holes was placed onto the plate. Aphids were sieved into the wells directly onto the Parafilm. The infested plates were closed with a gel blotting card and a second plastic stencil and then turned upside down. The samples were assessed for mortality 5 days after infestation.

Plutella xylostella [7] = test: Example B11: Plutella xylostella (diamondback moth), artificial diet, 96-well, eggs; assay type: in vivo; settings: 216 h, application rate 500 ppm, 9 days after infestation
Description: Example B11: Plutella xylostella (Diamondback Moth)
96-well microtiter plates containing artificial diet were treated with aqueous test solutions, prepared from 10,000 ppm DMSO stock solutions, by a liquid handling robot. After drying, eggs (˜30 per well) were infested onto a netted lid which was suspended above the diet. The eggs hatch and L1 larvae move down to the diet. The samples were assessed for mortality 9 days after infestation.
The following compounds gave an effect of at least 80% average mortality at an application rate of 500 ppm: […]

Row | SMILES | percent control (mortality, anti-feedant effect or growth inhibition) at 200 ppm (Spodoptera littoralis [1]) [%] | mortality at 200 ppm (Thrips tabaci) [%] | percent effect (mortality, anti-feeding or growth inhibition) at 12.5 ppm (Spodoptera littoralis [2]) [%] | percent effect (mortality or growth inhibition) at 200 ppm (Euschistus heros) [%] | percent effect (mortality or growth inhibition) at 200 ppm (Diabrotica balteata) [%] | mortality at 200 ppm (Myzus persicae [3]) [%] | percent control (mortality, anti-feedant effect or growth inhibition) at 200 ppm (Chilo suppressalis) [%] | percent effect (mortality or growth inhibition) at 200 ppm (Plutella xylostella [4]) [%] | mortality at 12 ppm (Myzus persicae [5]) [%] | mortality at 50 ppm (Myzus persicae [6]) [%] | mortality at 500 ppm (Plutella xylostella [7]) [%] | melting point [°C]
1 | CC(c1ncnn1-c1ncccn1)N(CC1CC1)C(=O)c1cc(OC(F)F)cc(C(F)(F)F)c1 (centres unmarked) [P2, N-(cyclopropylmethyl)-3-(difluoromethoxy)-N-[1-(2-pyrimidin-2-yl-1,2,4-triazol-3-yl)ethyl]-5-(trifluoromethyl) benzamide] | ≥ 80 | ≥ 80 | ≥ 80 | ≥ 80 | ≥ 80 | ≥ 80 | ≥ 80 | ≥ 80 | ≥ 80 | – | – | –
2 | CC(c1ncnn1-c1ncccn1)N(CC1CC1)C(=O)c1cc(OC(F)(F)F)cc(C(F)(F)F)c1 (centres unmarked) [P4, N-(cyclopropylmethyl)-N-[1-(2-pyrimidin-2-yl-1,2,4-triazol-3-yl)ethyl]-3-(trifluoromethoxy)-5-(trifluoromethyl) benzamide] | ≥ 80 | – | – | ≥ 80 | ≥ 80 | ≥ 80 | ≥ 80 | ≥ 80 | ≥ 80 | – | – | –
3 | CC(c1ncnn1-c1ncccn1)N(CC1CC1)C(=O)c1cc(SC(F)(F)F)cc(C(F)(F)F)c1 (centres unmarked) [P5, N-(cyclopropylmethyl)-N-[1-(2-pyrimidin-2-yl-1,2,4-triazol-3-yl)ethyl]-3-(trifluoromethyl)-5-(trifluoromethylsulfanyl) benzamide] | ≥ 80 | ≥ 80 | ≥ 80 | ≥ 80 | ≥ 80 | – | ≥ 80 | ≥ 80 | ≥ 80 | – | – | –
4 | CC(NC(=O)c1cc(OCC(F)(F)F)cc(C(F)(F)F)c1)c1ncnn1-c1ncccc1F (centres unmarked) [P14, N-[1-[2-(3-fluoro-2-pyridyl)-1,2,4-triazol-3-yl]ethyl]-3-(2,2,2-trifluoroethoxy)-5-(trifluoromethyl) benzamide] | ≥ 80 | – | – | ≥ 80 | ≥ 80 | – | – | ≥ 80 | – | ≥ 80 | ≥ 80 | –
5 | CC(c1ncnn1-c1ncccn1)N(CC1CC1)C(=O)c1cc(SC(F)F)cc(C(F)(F)F)c1 (centres unmarked) [P18, N-(cyclopropylmethyl)-3-(difluoromethylsulfanyl)-N-[1-(2-pyrimidin-2-yl-1,2,4-triazol-3-yl)ethyl]-5-(trifluoromethyl) benzamide] | – | ≥ 80 | – | ≥ 80 | ≥ 80 | ≥ 80 | – | ≥ 80 | ≥ 80 | ≥ 80 | ≥ 80 | –
6 | CC(NC(=O)c1cc(OC(F)(F)F)cc(C(F)(F)F)c1)c1ncnn1-c1ncccn1 (centres unmarked) [P19, N-[1-(2-pyrimidin-2-yl-1,2,4-triazol-3-yl)ethyl]-3-(trifluoromethoxy)-5-(trifluoromethyl) benzamide] | ≥ 80 | – | – | ≥ 80 | ≥ 80 | ≥ 80 | ≥ 80 | ≥ 80 | ≥ 80 | ≥ 80 | ≥ 80 | –
7 | CC(NC(=O)c1cc(OCC(F)F)cc(C(F)(F)F)c1)c1ncnn1-c1ncccn1 (centres unmarked) [P20, 3-(2,2-difluoroethoxy)-N-[1-(2-pyrimidin-2-yl-1,2,4-triazol-3-yl)ethyl]-5-(trifluoromethyl) benzamide] | ≥ 80 | – | – | ≥ 80 | – | ≥ 80 | ≥ 80 | ≥ 80 | ≥ 80 | ≥ 80 | ≥ 80 | –
8 | CC(NC(=O)c1cncc(OC(F)F)c1)c1ncnn1-c1ccccn1 (centres unmarked) [P23, 5-(difluoromethoxy)-N-[1-[2-(2-pyridyl)-1,2,4-triazol-3-yl]ethyl]pyridine-3-carboxamide] | – | – | – | – | – | – | – | – | – | – | – | 105 to 110
